Target: Lysine-specific histone demethylase 1A (Homo sapiens, UniProt O60341)
Assay: In Vitro Enzyme Inhibition Assay: This assay determines the ability of a test compound to inhibit LSD1 demethylase activity.

| SMILES | IC50 |
| --- | --- |
| Cn1c(N2CCC(N)CC2)nc(-c2ccc(O)cc2)c(-c2ccc3c(ccn3C)c2)c1=O | > 10000 nM |
| Cn1c(N2CCC(N)CC2)nc(-c2ccc(C#N)c(F)c2)c(-c2ccc3c(cnn3C)c2)c1=O | < 100 nM |
| Cn1cc2cc(-c3c(-c4ccc(C#N)cc4)nc(N4CCC(N)CC4)n(C)c3=O)ccc2n1 | < 100 nM |
| Cn1c(N2CCC(N)CC2)nc(-c2ccc(C#N)c(F)c2)c(-c2ccc3c(ccn3C)c2)c1=O | < 100 nM |

Continued, values first:

| IC50 | SMILES |
| --- | --- |
| < 100 nM | Cn1c(N2CCC(N)CC2)nc(-c2ccc(C#N)c(F)c2)c(-c2ccc(C(F)(F)F)nc2)c1=O |
| < 100 nM | Cn1c(N2CCC(N)CC2)nc(-c2ccc(C#N)c(F)c2)c(-c2ccc3cc[nH]c3c2)c1=O |
| < 100 nM | Cn1c(N2CCC(N)CC2)nc(-c2ccc(C#N)cc2)c(-c2ccc3c(cnn3C)c2)c1=O |
